#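 1) Cells in 96-well plates. 2) Compound, 48 h, 5 concentrations. 3) Linear interpolation between surrounding doses. 4) Unreached endpoint = highest concentration. GI50 is the concentration that inhibits growth by half. TGI: concentration producing complete growth inhibition.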
# Key:
# Test in all cases: growth of human tumour cells (NCI), 48 h
# RXF 393 renal = system: RXF 393 renal
# 786-0 renal = system: 786-0 renal
# UACC-62 melanoma = system: UACC-62 melanoma
# HCT-15 colon = system: HCT-15 colon
# IGROV1 ovarian = system: IGROV1 ovarian
# SK-OV-3 ovarian = system: SK-OV-3 ovarian
# CCRF-CEM leukemia = system: CCRF-CEM leukemia
# UACC-257 melanoma = system: UACC-257 melanoma
# SNB-75 CNS = system: SNB-75 CNS
# LOX IMVI melanoma = system: LOX IMVI melanoma
Structure (SMILES),GI50 (RXF 393 renal),TGI (RXF 393 renal),GI50 (786-0 renal),TGI (786-0 renal),GI50 (UACC-62 melanoma),TGI (UACC-62 melanoma),GI50 (HCT-15 colon),TGI (HCT-15 colon),GI50 (IGROV1 ovarian),TGI (IGROV1 ovarian),GI50 (SK-OV-3 ovarian),TGI (SK-OV-3 ovarian),GI50 (CCRF-CEM leukemia),TGI (CCRF-CEM leukemia),GI50 (UACC-257 melanoma),TGI (UACC-257 melanoma),TGI (SNB-75 CNS),TGI (LOX IMVI melanoma),GI50 (LOX IMVI melanoma),GI50 (SNB-75 CNS)
C=C(C)[C@@H]1CC[C@]2(COCCCN)CC[C@]3(C)[C@H](CC[C@@H]4[C@@](C)(CCCNCCCN)[C@H](C(=C)C)CC[C@]43C)[C@@H]12,1.59 µM,2.98 µM,1.56 µM,2.96 µM,1.71 µM,3.22 µM,1.3 µM,2.63 µM,1.49 µM,2.9 µM,2.23 µM,4.9 µM,2.39 µM,7.34 µM,1.88 µM,3.67 µM,,,,
CCN1CCCc2cc3c(C(F)(F)F)cc(=O)oc3cc21,,63.2 µM,,> 100 µM,,> 100 µM,,> 100 µM,,> 100 µM,,> 100 µM,,,,> 100 µM,96.7 µM,> 100 µM,,
O=NNc1ccc2ccccc2n1,,,,> 100 µM,,> 100 µM,,> 100 µM,,> 100 µM,,> 100 µM,,> 100 µM,,> 100 µM,> 100 µM,> 100 µM,,
O=C(O)CCCc1ccc2ccc3ccccc3c2c1,,> 100 µM,,> 100 µM,,> 100 µM,,> 100 µM,,> 100 µM,,,,,,> 100 µM,87.4 µM,> 100 µM,,
COc1cc(NCC(C#N)C#N)ccc1N=Nc1ccc(Cl)cc1,,79 µM,,48.8 µM,,23.8 µM,,47.4 µM,,71.7 µM,,83.8 µM,,61.9 µM,,,90.1 µM,36.1 µM,,
COc1ccc([C@@]2(O)c3c(ccc(O)c3OC)[C@H]2OC)c(OC)c1,,,,> 100 µM,,,,,,> 100 µM,,> 100 µM,,> 100 µM,,> 100 µM,> 100 µM,,,
[N-]=[N+]=NCCCn1c2c(c3ccc([N+](=O)[O-])cc3c1=O)C(=O)c1ccccc1-2,0.0923 µM,78.2 µM,> 100 µM,> 100 µM,29.6 µM,> 100 µM,75.5 µM,> 100 µM,> 100 µM,> 100 µM,> 100 µM,> 100 µM,,,0.244 µM,56.8 µM,,> 100 µM,8.66 µM,
COc1ccc2c(c1)OC1=C(C(=O)OC1)C2c1cc(OC)c2c(c1)OCCO2 (stereo not given),,,0.068 µM,> 23.1 µM,0.0456 µM,> 100 µM,0.0531 µM,> 100 µM,0.128 µM,> 100 µM,0.0716 µM,7.33 µM,0.0647 µM,,0.0458 µM,> 100 µM,> 100 µM,> 100 µM,0.0802 µM,0.0346 µM
COC(=O)C(=O)CC(=O)CCn1[nH]c(=O)c(Cl)c(Cl)c1=O,,> 100 µM,,> 100 µM,,> 100 µM,,> 100 µM,,> 100 µM,,,,,,> 100 µM,> 100 µM,> 100 µM,,
CCCOC(=O)N[C@H]1CCc2c(Cl)c(OC)c(OC)c(OC)c2-c2ccc(SC)c(=O)cc21,< 0.01 µM,8.41 µM,< 0.0174 µM,21.5 µM,< 0.01 µM,13.8 µM,< 0.01 µM,16.6 µM,< 0.01 µM,> 65.6 µM,,,< 0.01 µM,> 100 µM,7.46 µM,37.5 µM,14.5 µM,13 µM,< 0.01 µM,< 0.01 µM
C=CC[P@]1(=O)O[C@H](c2ccccc2)[C@H](C)N1C,,> 100 µM,,> 100 µM,,> 100 µM,,> 100 µM,,> 100 µM,,> 100 µM,,> 100 µM,,,> 100 µM,> 100 µM,,
O=C(O)CSCCc1ccccc1,,> 100 µM,,> 100 µM,,> 100 µM,,> 100 µM,,> 100 µM,,> 100 µM,,,,> 100 µM,> 100 µM,> 100 µM,,
CC(=O)C1C(c2ccccc2)C2(C)OC(=O)C(C#N)C12C (stereo not given),,> 100 µM,,> 100 µM,,> 100 µM,,> 100 µM,,> 100 µM,,> 100 µM,,> 100 µM,,,> 100 µM,> 100 µM,,
CSC(SC)(C(=O)O)c1cc(-c2c(Cl)cccc2Cl)no1,,,,> 100 µM,,> 100 µM,,41.9 µM,,> 100 µM,,> 100 µM,,> 100 µM,,> 100 µM,> 100 µM,> 100 µM,,
CNC(=O)OCc1c(COC(=O)NC)c(-c2ccc(-c3ccccc3)cc2)n(C)c1C,,2.91 µM,,10.2 µM,,5.46 µM,,9.43 µM,,12 µM,,11.8 µM,,,,37.3 µM,10.6 µM,11.7 µM,,
Cc1cn(C2CC(OC(=O)c3ccc(Cl)cc3)C(COC(=O)c3ccc(Cl)cc3)O2)c(=O)[nH]c1=O (stereo not given),,,,> 100 µM,,> 100 µM,,> 100 µM,,> 100 µM,,> 100 µM,,> 100 µM,,> 100 µM,> 100 µM,> 100 µM,,
O=c1[nH]c2ccccc2cc1-c1nc2ccc(Cl)cc2[nH]1,,,7.42 µM,> 100 µM,2.83 µM,> 100 µM,2.91 µM,> 100 µM,1.36 µM,> 100 µM,2.22 µM,8.01 µM,3.24 µM,> 100 µM,13.9 µM,> 100 µM,> 100 µM,> 100 µM,4.43 µM,2.98 µM
Cc1ccc(S(=O)(=O)N/N=C2\CCCCC23CCC(=O)NC3)cc1 (stereo not given),,> 100 µM,,> 100 µM,,> 100 µM,,> 100 µM,,> 100 µM,,> 100 µM,,> 100 µM,,> 100 µM,> 100 µM,,,
N#CCC(=O)N/N=C1/C(=O)N(c2ccc(Cl)cc2)C(=O)C(=O)C1c1nc2ccccc2s1 (stereo not given),,> 100 µM,,> 100 µM,,> 100 µM,,> 100 µM,,> 100 µM,,> 100 µM,,,,> 100 µM,63.7 µM,> 100 µM,,
CC1(O)C(C)(O)C2(C)O[Te]3(OC12C)OC1(C)C(C)(O)C(C)(O)C1(C)O3 (stereo not given),,37.6 µM,,> 100 µM,,> 100 µM,,34.4 µM,,35.7 µM,,,,22.9 µM,,> 100 µM,> 100 µM,18.9 µM,,

# Source: PubChem BioAssay (NCI)
